tested on: developing eosinophils (eosinophil progenitors, EoPs) from LDBM cells; assay: Murine eosinophil liquid culture (LDBM cells, IL-5): eosinophil yield after TLR ligand or cytokine exposure; format: cell-based, mouse; conditions: cytokines added with IL-5 from Day 8 for the final 6 days of culture
Description: The femurs and tibiae of mice were crushed in a sterile mortar and pestle containing 1×PBS with 2% FBS, and cells were collected by filtration through a 70-μm strainer. Red blood cells were lysed using RBC lysis buffer (Sigma, St. Louis, Mo.), and the remaining cells were subjected to centrifugation at 1700 rpm for 30 minutes on a Histopaque 1083 (Sigma) gradient. LDBM cells were aspirated from the interface, washed twice with 1× PBS and cultured at 0.8-1×10^6 cells per ml in 6-well plates or 24-well plates containing Complete Medium composed of Iscove's Modified Dulbecco's Medium (IMDM) with Glutamax (Gibco, Carlsbad, Calif.), 10% characterized FBS (HyClone, Hudson, N.H.), 2 mM L-glutamine (Gibco), 50 μM 2-ME (Sigma), and penicillin and streptomycin (Gibco) supplemented with 100 ng/mL stem cell factor (SCF; Peprotech, Rocky Hill, N.J.) and 100 ng/mL FLT3-ligand (FLT3L; Peprotech). On day 4, the medium in each non-centrifuged plate was replaced with fresh Complete Medium containing 10 ng/mL murine IL-5 (Peprotech). Medium with IL-5 was changed every 2 days thereafter. On Day 8, some cultures were treated with LPS from E. coli serotype O55:B5 (Sigma), ultrapure LPS from S. minnesota (InvivoGen, San Diego, Calif.), monophosphoryl lipid A from S. minnesota R595LPS (InvivoGen), synthetic lipid A from E. coli (InvivoGen), Pam2CSK4 (InvivoGen), Pam3CSK4 (InvivoGen), imiquimod (InvivoGen), CL264 (InvivoGen), or poly(I:C) (InvivoGen) at indicated doses in the presence of IL-5.
After TLR ligand exposure for 18-24 hours, the medium was changed to Complete Medium with IL-5 at 10 ng/ml for the remaining culture period. For neutralization experiments, monoclonal anti-mouse IFN-γ (clone 37895; R&D Systems, Minneapolis, Minn.) or rat IgG2a isotype antibody was added at 0.3 μg/ml to media during LPS exposure and to Complete Medium with IL-5 thereafter. For some experiments, cytokines (IL-6 at 0.1 ng/ml, IL-10 at 2 ng/ml, IFN-γ at 0.5 ng/ml, TNF-α at 0.5 ng/ml, or the combination of all four) were added on Day 8 to IL-5-containing Complete Medium. Cells were cultured in the presence of these individual cytokines or the cytokine combination for the remainder of the culture period.
Whole bone marrow or LDBM cells were washed twice in 1×PBS containing 1% FBS and 1 mM EDTA at a concentration of 4×10^6 cells/mL and blocked with 0.5 μg rat anti-mouse CD16/CD32 (BD Bioscience, San Diego, Calif.) for 5 minutes at 4° C. Cells were incubated with fluorescent-labeled antibodies for 30 minutes at 4° C. and then washed twice and resuspended in flow cytometry buffer. Antibodies used include rat anti-mouse CD34-FITC (BD Bioscience), rat anti-mouse TLR4-PE (Imgenex, San Diego, Calif.), rat anti-mouse Siglec-F-PE (BD Bioscience), and rat anti-mouse CCR3-FITC (R&D Systems). All flow cytometric data were acquired using a FACS Calibur or FACS Canto flow cytometer (BD Bioscience).
FIG. 3A. A schematic of LPS exposure for eosinophil progenitors is depicted. LDBM cells were stimulated with SCF and FLT3L for 4 days and subsequently cultured with IL-5 for 4 days to initiate eosinophil differentiation. On Day 8, cultured cells were stimulated with LPS and IL-5 for 18-24 hours, after which the medium was changed, and the cells were cultured for another 6 days with IL-5 alone.

Molecule	number of mature eosinophils produced (eosinophil yield)
IL-6: cytokine added at 0.1 ng/ml to IL-5-containing medium	no significant effect
TNF-α	no significant effect
IFN-γ: cytokine added at 0.5 ng/ml to IL-5-containing medium	no significant effect
IL-10: cytokine added at 2 ng/ml to IL-5-containing medium (protein, UniProt P22301 19-178, looked up) Interleukin-10: SPGQGTQSENSCTHFPGNLPNMLRDLRDAFSRVKTFFQMKDQLDNLLLKESLLEDFKGYLGCQALSEMIQFYLEEVMPQAENQDPDIKAHVNSLGENLKTLRLRLRRCHRFLPCENKSKAVEQVKNAFNKLQEKGIYKAMSEFDIFINYIEAYMTMKIRN	no significant effect

same assay, conditions: wild-type cultures; TLR ligand exposure 18-24 hours on Day 8 in presence of IL-5, then IL-5 alone; yield at day 11-15

Molecule	eosinophil yield (eosinophil production)
Pam3CSK4	dose-dependent reduction in eosinophil yield
CC(C)Cn1cnc2c(N)nc3ccccc3c21 [imiquimod]	significant suppression of eosinophil yield
synthetic monophosphoryl lipid A [sMPLA]	significant suppression of eosinophil production at higher doses
poly(I:C)	no effect on eosinophil production
monophosphoryl lipid A [MPLA]	dose-dependent suppression of eosinophil production
CCCCNc1nc(N)c2[nH]c(=O)n(Cc3ccc(C(=O)NCC(=O)O)cc3)c2n1 [CL264]	significant suppression of eosinophil yield
Pam2CSK4	dose-dependent reduction in eosinophil yield

From patent publication US20140228315A1, “BLOCKADE OF EOSINOPHIL PRODUCTION BY TOLL-LIKE RECEPTORS” (CHILDREN'S HOSPITAL MEDICAL CENTER, priority 2011, published 2014)
